Read-outs that look alike come from different tables or passages of the source.
Tests used:
HO-1 = conditions: paec, 72 h
Source text: Equal amounts of protein of each sample have been loaded and separated by electrophoresis on a 12% polyacrylamide gel in the presence of SDS (SDS-PAGE) and then transferred onto a nitrocellulose membrane (Amersham-Pharmacia) by means of electroblotting. […] The specific band has been detected by adding a chemiluminescent substrate followed by exposure to photographic film (ECL-Amersham-Pharmacia). The relative amount of HO-1 protein, normalised to the actin content of each sample, has been determined with the use of a densitometer (Pharmacia).
Following stimulation, HO-1 expression has been assessed by Western Blotting and densitometric analysis of the bands obtained. HO-1 expression is reported as the ratio of the intensity of the bands with respect to the control (table 1). The amount of protein loaded is normalised for actin.

PAEC cells = experiment: Proliferation of PAEC cells by CFSE labelling and cytofluorometric analysis; type: cell-based, Pig; conditions: CoPP alone, various concentrations; versus untreated PAEC controls (figure 1)
Source text: Two in vitro experimental models have been used.
CFSE is a non-fluorescent dye which diffuses passively into the cell cytoplasm. Once inside the cytoplasm, the dye is cleaved by intracellular esterases, thus becoming fluorescent. This binds strongly to cellular proteins and is retained during cellular development. At each cell division stage, CFSE is distributed evenly to daughter cells, with the result that each cellular generation will inherit half of the CFSE content. When analysed by cytofluorimetry, the sequential reduction of CFSE is visualised as distinct peaks corresponding to ever more decreasing fluorescence. PAEC proliferation has been evaluated as a proliferation index, calculated as the sum of the cells in all generations divided by the number of original parental cells (e.g. in the second generation, the parental cells would correspond to the total number of cells in the second generation divided by 2, in the third, divided by 4, because each will have given rise to 2^1, 2^2 cells and so on for each generation).

PBMCs [1] = experiment: Apoptosis analysis of simian PBMCs by PI staining (sub-diploid peak); type: cell-based, primate; conditions: CoPP alone; concanavalin A, 96 hours
Protocol: The pellet from each sample has been resuspended in 600 µl of PBS and subsequently, 1.4 ml of absolute ethanol has been added dropwise while shaking continuously. The samples have been left at -20°C overnight. Following fixation, the cells have been washed twice in PBS. The pellet has been resuspended in 500 µl of PI at a concentration of 50 µg/ml, to which 6.25 µl of Nonidet P40 and 8 µl of RNase A (1 mg/ml) have been added. The samples have been shaken vigorously and incubated for at least half an hour in the dark at room temperature. Following incubation, the samples have been analysed using a cytofluorimeter, for cell cycle analysis.
(§1) By means of staining with the DNA intercalator, PI, it has been possible to evaluate the apoptotic cells as a sub-diploid peak and the cells in the DNA synthesis and duplication stage (S+G2 stage) as peaks with a DNA content greater than or equal to the diploid content. The proliferation index of PBMCs has been evaluated by staining the cells with CFSE at the same time as stimulation.
In order to study apoptosis, the percentage of cells in the sub-diploid stage has been quantified.

PBMCs [2] = experiment: Proliferation of concanavalin A activated simian PBMCs by CFSE labelling; type: cell-based, primate; conditions: CoPP alone (CsA concentration 0), 96 hours (figure 2)
Source text: as §1

HO-1 expression in PAECs as the ratio of band intensity with respect to the control and normalised for actin (R) (HO-1; 50 µM): 6.0
HO-1 expression in PAECs as the ratio of band intensity with respect to the control and normalised for actin (R) (HO-1; 100 µM): 4.6
Substance: cobalt (III) protoporphyrin [CoPP]
proliferation index of PAECs (PAEC cells): increases the proliferation index in a dose dependent manner
apoptosis (cells in the sub-diploid stage) (PBMCs [1]): up to 6%
concentration at which PBMC proliferation is inhibited (PBMCs [2]): > 25 µM

Source: patent publication EP1762248A1, “Use of cobalt porphyrins in joint therapy with an immunosuppressant drug for treatment of transplant patients or autoimmune disorders” (CORIT Consorzio per la Ricerca sul, priority 2005, dated 2007)
